Assay results published in PubChem BioAssay (NCI).
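Compound exposure: 48 hours, 5 concentrations, 96-well plates. TGI is the concentration that stops growth completely.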

Tests used:
Experiment in all cases: DTP human tumour cell line panel, 48 h
[1] = tested on: NCI-H23 lung
[2] = tested on: UO-31 renal
[3] = tested on: SF-268 CNS
[4] = tested on: MDA-MB-435
[5] = tested on: MOLT-4 leukemia
[6] = tested on: CAKI-1 renal
[7] = tested on: SK-MEL-5 melanoma
[8] = tested on: SK-MEL-2 melanoma
[9] = tested on: SR leukemia
[10] = tested on: K-562 leukemia
[11] = tested on: M14 melanoma
[12] = tested on: HT29 colon
[13] = tested on: HCC-2998 colon
[14] = tested on: PC-3 prostate
[15] = tested on: A498 renal
[16] = tested on: NCI/ADR-RES ovarian
[17] = tested on: BT-549 breast
[18] = tested on: HS 578T breast
[19] = tested on: MCF7 breast
[20] = tested on: MDA-N
[21] = tested on: DU-145 prostate
[22] = tested on: 786-0 renal
[23] = tested on: OVCAR-4 ovarian
[24] = tested on: NCI-H460 lung
[25] = tested on: SK-OV-3 ovarian
[26] = tested on: HCT-116 colon
[27] = tested on: A549 NSCLC
[28] = tested on: OVCAR-5 ovarian
[29] = tested on: LOX IMVI melanoma
[30] = tested on: SK-MEL-28 melanoma
[31] = tested on: IGROV1 ovarian
[32] = tested on: U251 CNS
[33] = tested on: CCRF-CEM leukemia
[34] = tested on: RXF 393 renal
[35] = tested on: OVCAR-8 ovarian
[36] = tested on: NCI-H226 lung
[37] = tested on: SNB-75 CNS
[38] = tested on: UACC-257 melanoma
[39] = tested on: EKVX NSCLC
[40] = tested on: OVCAR-3 ovarian
[41] = tested on: SF-539 CNS
[42] = tested on: HCT-15 colon
[43] = tested on: UACC-62 melanoma
[44] = tested on: TK-10 renal
[45] = tested on: COLO 205 colon
[46] = tested on: SN12C renal
[47] = tested on: ACHN renal
[48] = tested on: SW-620 colon
[49] = tested on: T-47D breast
[50] = tested on: NCI-H522 lung
[51] = tested on: MDA-MB-231 breast
[52] = tested on: HOP-92 NSCLC
[53] = tested on: KM12 colon
[54] = tested on: HOP-62 NSCLC
[55] = tested on: SF-295 CNS
[56] = tested on: MALME-3M melanoma
[57] = tested on: SNB-19 CNS
[58] = tested on: RPMI-8226 leukemia
[59] = tested on: HL-60(TB) leukemia

Measured: TGI

Cc1ccc(-c2cc(=O)c(=O)[nH][nH]2)cc1
not listed: [56] | [57] | [58] | [59]
> 100 µM: all other assays above

c1ccc(/C(=N/Nc2ccccn2)c2cccnn2)cc1
40.7 µM: [46]
71.3 µM: [59]
24.9 µM: [41]
4.93 µM: [50]
> 75.5 µM: [51]
> 20.8 µM: [9]
13.2 µM: [16]
> 41.6 µM: [6]
11.2 µM: [36]
> 47.6 µM: [25]
16.7 µM: [39]
18 µM: [31]
6.02 µM: [2]
17 µM: [58]
> 93.4 µM: [19]
18.9 µM: [35]
> 78.8 µM: [48]
> 58.8 µM: [12]
32.7 µM: [37]
> 50.3 µM: [1]
> 39.5 µM: [52]
> 52.6 µM: [43]
> 79 µM: [18]
18.5 µM: [11]
> 86.9 µM: [57]
52.3 µM: [7]
6.42 µM: [3]
> 67.9 µM: [56]
> 69.8 µM: [27]
27.1 µM: [5]
> 63.8 µM: [54]
29.7 µM: [55]
24.5 µM: [47]
not listed: [33]
> 100 µM: all other assays above

COC(=O)C1Cc2cc3c(cc2C1)CCC3
not listed: [50]
> 100 µM: all other assays above
